For one molecule, mortality found results are on record in patent publication US20160168616A1, “PRODUCTION OF NONTOXIC RAW MATERIALS AND FINISHED PRODUCTS TESTED BY MEANS OF AN INNOVATIVE PROBIOTIC BACTERIA BASED METHOD FOR DETERMINING TOXICITY TOWARDS PROBIOTIC BACTERIA” (PROBIOTICAL S.P.A., priority 2013, published 2016).

The structures appear in SMILES notation.

The subject of the data set is probiotic bacterial strains indicated in Table 1 with the numbers 17, 22, 41, 60, 74, 98, 121, 145, 174 and 182. The data set is described as follows: toxicity test of raw materials with the method of the invention (plate count, % mortality). Format: cell-based. The note with it: raw material test; strains 17, 22, 41, 60, 74, 98, 121, 145, 174 and 182 of Table 1 as toxicity markers.

Procedure: The method comprises a step in which the probiotic bacterial strain (toxicity marker) is placed in contact with a raw material to be tested using a quantity of raw material equal to that normally used in the formulation.
In practical terms, a first sample is prepared which comprises the probiotic bacterial strain (toxicity marker), the optimal culture substrate for said probiotic bacterial strain and the raw material to be tested.
Then a second sample (internal reference) is prepared which comprises the same probiotic bacterial strain used in said first sample (toxicity marker) and only the optimal culture substrate (without the raw material to be tested). […]
The ratio between the bacterial count (number of cells counted on the plate) of said first sample and the bacterial count (number of cells on the plate) of said second sample provides a number less than 1, which, if expressed as a percentage, provides a count of the bacteria which survived in contact with the raw material and, therefore, also expresses the % mortality induced by said raw material in the probiotic bacterial strains used as a marker. […]
8.11 incubate the plates upside down at 37±1° C. for 72 h under anaerobic conditions (Gas-Pak+anaerobic kit). […] The result will be expressed as CFU, i.e. Colony Forming Units. […]

`O=C(O)CC(O)(CC(=O)O)C(=O)O` [Citric Acid] showed a mortality found of 2%.
